# pEC50, pKi: −log10 of the molar value. Several values for one entry are separate records, joined by “and”; a condition that tells them apart may be missing. Identical values can stand only once. Like-named read-outs stand apart in the source and are kept apart here.
# Key:
# [1] = Biodistribution in male Balb/C mice; type: in vivo; conditions: for Biodistribution: Blood / Biodistribution: Brain / Biodistribution: Fat / Biodistribution: Heart / Biodistribution: Kidney / Biodistribution: Liver / Biodistribution: Lung / Biodistribution: Muscle / Biodistribution: Pancreas / Biodistribution: Spleen: tail vein, mean ± SD, n = 4
# Procedure: For the biodistribution studies, 100˜130 μCi of [^11C] TZ-20-35 in ˜100 μL of 10% ethanol/saline solution (v/v) was injected via the tail vein into mature male Balb/C mice (19-24 g) under anesthesia (2.5% isoflurane in oxygen at a flow rate of 1 mL/min). A group of at least four […] were used for each time point. […] The whole brain was quickly harvested. At the same time, samples of blood, heart, lung, liver, spleen, pancreas, kidney, muscle, fat, and tail were dissected. All the tissue samples were collected in tared tubes and counted in an automated gamma counter (Beckman Gamma 8000 well counter) with standards, prepared by diluting the injectate. The counted tissues were then weighed, and the % ID/g was calculated (Table 4).
# [2] = molecular target: T1, α-synuclein fibrils (Homo sapiens, UniProt P37840); assay: ThT competitive assay for α-synuclein fibrils (Table 1); type: binding; conditions: for EC50: α-synuclein fibrils
# T1 construct: made in house; host or cells: E. coli BL21(DE3)RIL
# Procedure: Upon binding to amyloid fibrils, a peak at approximately 440 nm becomes dominant with the fluorescent emission maximum shifted to 480 nm. This is accompanied by a strong enhancement of the fluorescence.
# α-Synuclein recombinant protein was produced in E. coli. […] Freshly transformed BL21 colonies were inoculated into 2 L baffled flasks containing 250 mL sterilized TB (1.2% bactotryptone, 2.4% yeast extract, 0.4% glycerol, 0.17 M KH2PO4, 0.72 M K2HPO4) with 50 μg/ml ampicillin, and incubated overnight at 37° C. with shaking.
# To determine the concentration of fibrils, the reaction mixture (100 μL) was centrifuged at 18,000×g for 10 minutes to separate fibrils from monomer. The α-synuclein monomer and other soluble proteins in the supernatant were removed, and the fibril pellet was resuspended in 100 μL solution of Tris-HCl (20 mM) and NaCl (100 mM). This fibril suspension was used in a bicinchoninic acid (BCA) protein assay along with a bovine serum albumin (BSA) standard curve to determine the concentration of fibrils in the 72 hour fibril reaction mixture.
# To prepare the fibrils for performing binding assays, the fibril reaction mixture prepared above was centrifuged at 18,000×g for 10 minutes.
# Once the ThT-α-synuclein saturation binding curve and dissociation constant (Kd) were determined the competitive assay for determining the binding affinity of various test compounds was conducted. […] The mixture was incubated at room temperature for 60 minutes on the shaking plate. The fluorescent intensity for each cell was measured by the fluorescence reader at λex and λem. The Ki value for each compound was calculated by the corresponding inhibition curve.
# The Ki values were derived from the EC50 values using the Cheng-Prusoff equation: Ki=EC50/(1+[radioligand]/Kd). See FIGS. 17.1-31.2 for the inhibition curves for each compound in the ThioT competitive binding assay.
# [3] = molecular target: T1, α-synuclein fibrils; assay: Thioflavin T competition assay (Example 130, Table 9), α-synuclein fibrils; type: binding
# Procedure: Freshly transformed BL21 colonies were inoculated into 2 L baffled flasks containing 250 ml sterilized TB (1.2% bactotryptone, 2.4% yeast extract, 0.4% glycerol, 0.17 M KH2PO4, 0.72 M K2HPO4) with 50 μg/ml ampicillin, and incubated overnight at 37° C. with shaking.
# Competition assays used a fixed concentration of α-syn, Aβ, or tau fibrils (1 μM), consisting of 3 μM, 50 nM and 4 μM of ThioflavinT respectively. […] To optimize the determination of selectivity, assays for all three fibril species were set up in parallel using a common set of intermediate compound dilutions for each analog. Reactions were incubated at room temperature for 1.5 h before quantifying bound ligand as described above for the saturation binding assay. […] All data points were performed in triplicate. Nonspecific fluorescence was measured in parallel reactions containing ThioT plus each concentration of competitor but no fibrils, and these measurements were subtracted from the reactions with fibrils to yield fibril-specific fluorescence. Data were analyzed using Graphpad. Prism software (version 4.0) to obtain EC50 values by fitting the data to the equation Y=bottom+(top-bottom)/(1+10^(x−log EC50)).
# [4] = molecular target: tau fibrils (Homo sapiens, UniProt P10636); assay: ThT competitive assay for tau fibrils (Table 3); type: binding; design: made in house; host or cells: E. coli; conditions: for EC50: tau fibrils
# Procedure: Tau fibril recombinant protein was produced in E. coli. Additional preparation was performed in a similar fashion to Example 115.
# [5] = average, read-out: Ki (nM) α-syn (avg)
# [6] = individual determinations, read-out: Ki (nM) α-syn
# [7] = average, read-out: EC50 (nM) EC50 (avg)
# [8] = individual determinations, read-out: EC50 (nM) EC50
# [9] = average, read-out: α-synuclein EC50 (avg)
# [10] = average, read-out: α-synuclein Ki (avg)
# [11] = individual determinations, read-out: α-synuclein EC50
# [12] = individual determinations, read-out: α-synuclein Ki
# [13] = average, read-out: Ki (nM) Tau (avg)
# [14] = individual determinations, read-out: Ki (nM) Tau
# [15] = average, read-out: EC50m (nM) EC50 (avg)
# [16] = individual determinations, read-out: EC50m (nM) EC50
# tau fibrils, sequence (P10636 560-692 limits assumed): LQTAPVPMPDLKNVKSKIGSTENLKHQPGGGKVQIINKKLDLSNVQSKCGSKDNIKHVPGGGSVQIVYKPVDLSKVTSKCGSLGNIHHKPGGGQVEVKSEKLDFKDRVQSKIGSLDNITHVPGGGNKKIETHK
smiles,measurement,setting,value
COc1ccc(NC(=O)c2ccc(/C=C/c3ccncc3)cc2)cc1 [[^11C]TZ-20-83],brain uptake and washout (assessment in words),[1]; 5 to 60 min post injection,brain uptake and washout aren't significant
same,Biodistribution: Blood,[1]; 5 min post injection,1.93 ± 0.15 % ID/g
same,Biodistribution: Brain,[1]; 5 min post injection,1.93 % ID/g and 1.93 ± 0.29 % ID/g
same,Biodistribution: Fat,[1]; 5 min post injection,1.94 ± 0.20 % ID/g
same,Biodistribution: Heart,[1]; 5 min post injection,2.31 ± 0.37 % ID/g
same,Biodistribution: Kidney,[1]; 5 min post injection,17.55 ± 2.61 % ID/g
same,Biodistribution: Liver,[1]; 5 min post injection,37.98 ± 3.78 % ID/g
same,Biodistribution: Lung,[1]; 5 min post injection,11.22 ± 0.59 % ID/g
same,Biodistribution: Muscle,[1]; 5 min post injection,1.18 ± 0.24 % ID/g
same,Biodistribution: Pancreas,[1]; 5 min post injection,3.09 ± 0.39 % ID/g
same,Biodistribution: Spleen,[1]; 5 min post injection,18.77 ± 3.38 % ID/g
same,organ recovery,[1]; 30 min post injection,58%
same,Biodistribution: Blood,[1]; 30 min post injection,1.59 ± 0.42 % ID/g
same,Biodistribution: Brain,[1]; 30 min post injection,1.63 % ID/g and 1.63 ± 0.33 % ID/g
same,Biodistribution: Fat,[1]; 30 min post injection,1.73 ± 0.36 % ID/g
same,Biodistribution: Heart,[1]; 30 min post injection,1.79 ± 0.35 % ID/g
same,Biodistribution: Kidney,[1]; 30 min post injection,9.98 ± 1.76 % ID/g
same,Biodistribution: Liver,[1]; 30 min post injection,17.94 ± 3.86 % ID/g
same,Biodistribution: Lung,[1]; 30 min post injection,4.10 ± 0.96 % ID/g
same,Biodistribution: Muscle,[1]; 30 min post injection,1.17 ± 0.23 % ID/g
same,Biodistribution: Pancreas,[1]; 30 min post injection,5.10 ± 1.09 % ID/g
same,Biodistribution: Spleen,[1]; 30 min post injection,3.49 ± 0.84 % ID/g
same,organ recovery,[1]; 60 min post injection,38%
same,Biodistribution: Blood,[1]; 60 min post injection,1.56 ± 0.12 % ID/g
same,Biodistribution: Brain,[1]; 60 min post injection,1.25 % ID/g and 1.25 ± 0.11 % ID/g
same,Biodistribution: Fat,[1]; 60 min post injection,1.05 ± 0.22 % ID/g
same,Biodistribution: Heart,[1]; 60 min post injection,1.48 ± 0.05 % ID/g
same,Biodistribution: Kidney,[1]; 60 min post injection,5.82 ± 0.47 % ID/g
same,Biodistribution: Liver,[1]; 60 min post injection,13.36 ± 1.75 % ID/g
same,Biodistribution: Lung,[1]; 60 min post injection,2.93 ± 0.22 % ID/g
same,Biodistribution: Muscle,[1]; 60 min post injection,0.92 ± 0.14 % ID/g
same,Biodistribution: Pancreas,[1]; 60 min post injection,6.96 ± 0.51 % ID/g
same,Biodistribution: Spleen,[1]; 60 min post injection,3.21 ± 0.76 % ID/g
COCOc1ccc2nc(/C=C/c3ccnc(OC)c3)ccc2c1 [TZ-36-144],Ki,[2]; [5],42 nM
same,Ki,[2]; [6],42 nM
same,EC50,[2]; [7],110 nM
same,EC50,[2]; [8],110 nM
same,pEC50,[3]; [9],6.96
same,pKi,[3]; [10],7.38
same,pEC50,[3]; [11],6.96
same,pKi,[3]; [12],7.38
COc1ccc(/C=C/c2ccsc2)cc1 [TZ-34-28],Ki,[2]; [5],172 nM
same,Ki,[2]; [6],43.1 nM and 167 nM and 113 nM and 104 nM and 256 nM and 347 nM
same,EC50,[2]; [7],449 nM
same,EC50,[2]; [8],113 nM and 437 nM and 297 nM and 271 nM and 670 nM and 907 nM
same,Ki,[4]; [13],876 nM
same,Ki,[4]; [14],600 nM and 1150 nM
same,EC50,[4]; [15],2150 nM
same,EC50,[4]; [16],1470 nM and 2830 nM
COc1ccc2nc(/C=C/c3ccoc3)ccc2c1 [TZ-36-54],Ki,[2]; [5],68.5 nM
same,Ki,[2]; [6],65 nM and 72 nM
same,EC50,[2]; [7],178 nM
same,EC50,[2]; [8],169 nM and 188 nM
same,pEC50,[3]; [9],6.75
same,pKi,[3]; [10],7.16
same,pEC50,[3]; [11],6.77 and 6.73
same,pKi,[3]; [12],7.19 and 7.14
COc1ccc2nc(/C=C/c3ccnc(Br)c3)ccc2c1 [TZ-36-36],Ki,[2]; [5],152 nM
same,Ki,[2]; [6],128 nM and 175 nM
same,EC50,[2]; [7],396 nM
same,EC50,[2]; [8],335 nM and 457 nM
same,pEC50,[3]; [9],6.40
same,pKi,[3]; [10],6.82
same,pEC50,[3]; [11],6.47 and 6.34
same,pKi,[3]; [12],6.89 and 6.76
COc1cc(/C=C/c2ccc3cc(O)ccc3n2)ccn1 [TZ-36-146],Ki,[2]; [5],127 nM
same,EC50,[2]; [7],332 nM
same,pEC50,[3]; [9],6.48
same,pKi,[3]; [10],6.90
same,Ki,[4]; [13],113 nM
same,Ki,[4]; [14],124 nM and 102 nM
same,EC50,[4]; [15],278 nM
same,EC50,[4]; [16],305 nM and 251 nM

# From patent publication US10300155B2, “Alpha-synuclein ligands” (Washington University, priority 2015, dated 2019)
